Results from US20230277553A1, “THERAPEUTIC COMPOSITION OF CURE-PRO COMPOUNDS FOR TARGETED DEGRADATION OF BET DOMAIN PROTEINS, AND METHODS OF MAKING AND USAGE” (CORNELL UNIVERSITY, priority 2020, published 2023).
“Also recorded” adds a separate entry of the source.

What was measured:
Assay type in all cases: cell-based
BRD4 [1] = target: T1, BRD4 (Homo sapiens, UniProt O60885); experiment: Summary of BRD4 degradation by CURE-PRO pairs, estimated from Western Blot or WES (Proteinsimple); design: endogenous in cells; conditions: for Degradation of BRD4 in combination with MDM2 ligand [drawing 423] / Degradation of BRD4 in combination with MDM2 ligand [drawing 424]: Table 5, aryl-boronic acid-containing MDM2 ligand; for Degradation of BRD4 in combination with MDM2 ligand [drawing 423]: first drawing (8310); for Degradation of BRD4 in combination with MDM2 ligand [drawing 424]: second drawing (8312)
Source text: A black check mark indicates efficacy of 30% to 70% or higher protein degradation.

BRD4 [2] = target: T1, BRD4; experiment: CURE-PRO-mediated BRD4 degradation with MDM2 ligands, WES (ProteinSimple), HCT116 cells; design: endogenous in cells; conditions: HCT116, 24 h, WES; for BRD4 degradation, in combination with MDM2 ligand 8310: 1:1 with 8310, 10 μM; for BRD4 degradation, in combination with MDM2 ligand 8312: 1:1 with 8312, 10 μM
Description: All cell lines were purchased from ATCC or DSMZ and grown at 37° C. with 5% CO2. Human HeLa cells were cultured in complete growth medium (Dulbecco's modified Eagle's medium (DMEM) supplemented with 10% FBS); MCF7 cells were cultured in complete growth medium (Dulbecco's modified Eagle's medium (DMEM) supplemented with 10% FBS and 0.01 mg/ml human recombinant insulin (Sigma Aldrich); Namalwa and MOLM-13 cells were cultured in complete growth medium (RPMI 1640 medium supplemented with 10% FBS); MV-4-11 were cultured in complete growth medium (Iscove's Modified Dulbecco's medium, supplemented with 10% FBS); HCT116 cells were cultured in complete growth medium (McCoy's 5a Medium supplemented with 10% FBS). For cellular degradation of BRD4 studies, cells were seeded in a 12-well plate at 70-80% confluency, allowed to attach overnight, and incubated with the indicated compounds for the indicated time. When indicated, a 15-minute pretreatment with 10 μM pomalidomide, 10 μM VHL298, 10 μM Nutlin3a, 1 μM MG-132 or 1 μM Carfilzomib was performed before the addition of CURE-PROs. For washout studies, after CURE-PRO treatment, media was aspirated and incubated with complete medium for the indicated time before lysis.
WES Simple analysis was performed on WES system (ProteinSimple-Biotechne) according to the manufacturer's instructions. Total protein concentrations of cell lysates were determined by the Pierce BCA kit (Thermo Fisher). 3 μL of 0.3 μg/μL of the protein lysate was loaded onto a 12- to 230-kDa WES assay plate (ProteinSimple) where 300 nL sample was withdrawn through a capillary, subjected to electrophoretic separation of proteins by size, and followed by the simultaneous, HRP-based detection of proteins using the Anti-Rabbit Detection Module (Proteinsimple: #DM-001). The electropherograms were checked then the automatic peak detection was manually corrected if it was required.
(§1) HCT116 cells (3×10^6) were treated for 24 hours with the compounds solubilized in DMSO. Compounds were added at 1 μM-10 μM each. Standardized protein samples were electrophoresed and imaged as described in the WES ProteinSimple section above. FIGS. 59, 60, and 61 depict the concentration-dependence of CURE-PRO-mediated BRD4 degradation using MDM2 ligands.
as §1, with “62” for “59, 60,”, “63” for “61”
HCT116 cells (3×10^6) were treated for 24 hours with the compounds solubilized in DMSO. CURE-PRO monomers were added at 10 μM each and the proteasomal inhibitors at 1 μM. Standardized protein samples were electrophoresed and imaged as described in the WES ProteinSimple section above. FIG. 68 depicts the dependence of the proteasome for CURE-PRO-mediated BRD4 degradation.

BRD2 = target: T2, BRD2 (Homo sapiens, UniProt P25440); experiment: CURE-PRO-mediated BRD2 degradation with MDM2 ligands, Western blot, HCT116 cells; conditions: HCT116, 24 h, 1:1, 10 μM
T2 construct: endogenous in cells; host or cells: HCT116
Source text: Anti-BRD4 (13440, 1:1,000 dilution for Western Blot and 1:25 dilution for ProteinSimple); Anti-BRD2 (5848 1:1,000 dilution for Western Blot and 1:25 dilution for ProteinSimple); β-Actin (3700, 1:2,000 dilution for Western Blot), β-Actin (4970, 1:50 dilution for ProteinSimple) anti-mouse IgG-HRP, and anti-rabbit IgG-HRP antibodies were purchased Cell Signaling Technology. Anti-GAPDH (600-401-A33, 1:100 dilution for ProteinSimple) was purchased from Rockland Immunochemicals, Inc. Anti-BRD3 (sc-81202, 1:200 dilution for Western Blot) was purchased from Santa Cruz Biotechnology.
HeLa, MCF7, or HCT116 cells (2.5-3×10^6) were treated for 24 hours with the indicated compounds solubilized in DMSO. The cells were washed in ice-cold PBS and were then lysed in RIPA lysis buffer (150 mM NaCl, 5 mM EDTA, 1% NP-40, 0.5% sodium deoxycholate, 0.1% SDS, 50 mM Tris, pH 8.0.) with Roche protease inhibitor complete cocktail and phosphatase inhibitors (10 mM sodium fluoride, 10 mM sodium pyrophosphate, 1 mM sodium orthovanadate and 20 mM β-glycerophosphate). The total protein concentrations were determined by Bradford Protein Assay and 10-20 μg of protein was loaded onto 4-15% Tris-Glycine gradient gels (Biorad). […] Signal was detected with ECL Western Blotting Substrate (Pierce) and X-ray film processed with a Konica SRX-101 X-ray film processor or captured by Bio-Rad's Chemidoc Imaging system. […]

T2 sequence (P25440 whole entry): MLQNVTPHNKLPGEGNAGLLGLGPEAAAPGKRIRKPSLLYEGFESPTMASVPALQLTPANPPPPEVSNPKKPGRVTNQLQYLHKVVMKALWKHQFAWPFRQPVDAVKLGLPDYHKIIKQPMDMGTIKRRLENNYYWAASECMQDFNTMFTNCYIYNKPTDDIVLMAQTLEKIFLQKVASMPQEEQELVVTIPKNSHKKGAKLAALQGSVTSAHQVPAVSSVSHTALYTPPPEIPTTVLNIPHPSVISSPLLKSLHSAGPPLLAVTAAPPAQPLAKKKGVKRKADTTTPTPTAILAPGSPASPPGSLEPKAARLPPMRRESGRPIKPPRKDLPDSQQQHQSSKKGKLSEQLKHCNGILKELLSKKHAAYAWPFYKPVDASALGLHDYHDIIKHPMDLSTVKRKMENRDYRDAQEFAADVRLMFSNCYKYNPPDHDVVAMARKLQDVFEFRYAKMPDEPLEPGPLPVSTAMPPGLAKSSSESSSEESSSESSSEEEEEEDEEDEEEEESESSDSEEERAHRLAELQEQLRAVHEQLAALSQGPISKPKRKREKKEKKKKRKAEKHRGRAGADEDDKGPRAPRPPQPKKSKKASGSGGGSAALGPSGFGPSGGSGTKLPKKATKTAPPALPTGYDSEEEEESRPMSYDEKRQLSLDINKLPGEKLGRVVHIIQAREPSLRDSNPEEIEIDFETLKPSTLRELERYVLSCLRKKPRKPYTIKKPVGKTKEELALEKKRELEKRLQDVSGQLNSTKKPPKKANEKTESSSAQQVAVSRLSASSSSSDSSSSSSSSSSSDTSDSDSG

| Structure (SMILES) | Degradation of BRD4 in combination with CRBN ligand [drawing 372] (BRD4 [1]; Table 1, CRBN ligand, third drawing (8066)) | Degradation of BRD4 in combination with CRBN ligand [drawing 370] (BRD4 [1]; Table 1, aromatic 1,2-diol- or hindered cis-1,2-diol-containing CRBN ligand, first drawing (8046)) | Degradation of BRD4 in combination with VHL ligand [drawing 397] (BRD4 [1]; Table 3, aromatic 1,2-diol-containing VHL ligand, second drawing (8305)) | BRD4 degradation, in combination with MDM2 ligand 8313 (BRD4 [2]; 1:1 with 8313, 1-10 μM each) | BRD4 degradation, in combination with MDM2 ligand 8314 (BRD4 [2]; 1:1 with 8314, 1-10 μM each) | Degradation of BRD4 in combination with MDM2 ligand [drawing 423] (BRD4 [1]) | Degradation of BRD4 in combination with MDM2 ligand [drawing 424] (BRD4 [1]) | BRD2 degradation, in combination with MDM2 ligands 8310 and 8312 (BRD2) | BRD4 degradation, in combination with MDM2 ligand 8310 (BRD4 [2]) | BRD4 degradation, in combination with MDM2 ligand 8312 (BRD4 [2]) | Degradation of BRD4 in combination with CRBN ligand [drawing 407] (BRD4 [1]; Table 4, aryl-boronic acid-containing CRBN ligand, first drawing (by text: 8048)) |
| --- | --- | --- | --- | --- | --- | --- | --- | --- | --- | --- | --- |
| CCNC(=O)C[C@@H]1N=C(c2ccc(Cl)cc2)c2cc(OCCCCC(=O)Nc3cccc(B(O)O)c3)ccc2-n2c(C)nnc21 [BRD-E20, (3-(5-(((4S)-6-(4-chlorophenyl)-4-(2-(ethylamino)-2-oxoethyl)-1-methyl-4H-benzo[f][1,2,4]triazolo[4,3-a][1,4]diazepin-8-yl)oxy)pentanamido)phenyl)boronic acid] | ✓ (A black check mark indicates efficacy of 30% to 70% or higher protein degradation) | ✓ (A black check mark indicates efficacy of 30% to 70% or higher protein degradation) | ✓ (A black check mark indicates efficacy of 30% to 70% or higher protein degradation) | had no effect on BRD4 protein levels | caused partial loss of the BRD4 protein; also recorded: Degradation is observed |  |  |  |  |  |  |
| CCNC(=O)C[C@@H]1N=C(c2ccc(Cl)cc2)c2cc(OCCNC(=O)c3cccc(O)c3O)ccc2-n2c(C)nnc21 [BRD-N25] |  |  |  |  |  | ✓ (A black check mark indicates efficacy of 30% to 70% or higher protein degradation) | ✓ (A black check mark indicates efficacy of 30% to 70% or higher protein degradation) | BRD2 to a lesser extent; also recorded: Degradation is evident | caused BRD4 degradation; also recorded: marked BRD4 degradation | caused BRD4 degradation |  |
| CCNC(=O)C[C@@H]1N=C(c2ccc(Cl)cc2)c2cc(OCCOCCNC(=O)c3cccc(O)c3O)ccc2-n2c(C)nnc21 [BRD-N39, N-(2-(2-(((4S)-6-(4-chlorophenyl)-4-(2-(ethylamino)-2-oxoethyl)-1-methyl-4H-benzo[f][1,2,4]triazolo[4,3-a][1,4]diazepin-8-yl)oxy)ethoxy)ethyl)-2,3-dihydroxybenzamide] |  |  |  |  |  | ✓ (A black check mark indicates efficacy of 30% to 70% or higher protein degradation) | ✓ (A black check mark indicates efficacy of 30% to 70% or higher protein degradation) | BRD2 to a lesser extent; also recorded: Degradation is evident | caused BRD4 degradation | caused BRD4 degradation | ✓ (A black check mark indicates efficacy of 30% to 70% or higher protein degradation) |
